Source: patent US20250382258A1, “NAPHTHALENE-TYPE COMPOUND AND PREPARATION METHOD THEREFORE AND USE THEREFORE” (DALIAN INSTITUTE OF CHEMICAL PHYSICS, CHINESE ACADEMY OF …, priority 2022, published 2025)
≈ marks a conversion by molar mass, not a printed value.

Assay: water solubility under acidic conditions
Assay type: physicochemical
Details: not given

Molecule | water solubility under acidic conditions
O=C1C(NCc2ccccc2)=C(O)C(=O)c2c(O)c(NCc3ccccc3)cc(NCc3ccccc3)c21 [3,5,7-tribenzylamine-2,8-dihydroxy-1,4-dicarbonylnaphthalene] | approximately 1.6 M
O=C1C(O)=C(NCc2ccccc2)C(=O)c2ccccc21 [3-benzylamine-2-hydroxy-1,4-dicarbonylnaphthalene] | approximately 1 M
Oc1c(NCc2ccccc2)ccc2c(O)c(NCc3ccccc3)ccc12 [2,6-Dibenzylamine-1,5-naphthalenediol] | lower than 5 mM
2,2′,6,6′-tetrabenzylamine-5,5′-dihydroxy-1,1′-dicarbonylbinaphthalene | approximately 2 M
Oc1c(NCc2ccccc2)cc(NCc2ccccc2)c2c(O)c(NCc3ccccc3)cc(NCc3ccccc3)c12 [2,4,6,8-Tetrabenzylamine-1,5-naphthalenediol] | lower than 1 M

Assay: not given
Details: in a pH=14 aqueous solution; cited from earlier work

Molecule | solubility [mM]
O=C1C(O)=C(C2=C(O)C(=O)c3ccccc3C2=O)C(=O)c2ccccc21 [bilawsone] | 560 (≈ 194 mg/mL)
